Measured values reported in patent US9051351B2, “Hepatocyte growth factor mimics as therapeutic agents” (Washington State University, priority 2011, dated 2015).
Entries after “also recorded” stand apart in the source; their conditions may differ. Structures can show the parent of a compound that is named as a salt. Where two headings read alike, the source gives them in different places. Values belong to the molecule of their own block, whether it stands above or below them. Where a SMILES comes first, the peptide text is derived from it. [ ]: non-standard residue; d: D form. dNle = CCCC[C@@H](N)C(=O)O; Nle = CCCC[C@H](N)C(=O)O; GABA = NCCCC(=O)O

Experiments:
[1] = Serum metabolism of peptides in rat serum; type: in vitro ADME; details: for half-life at 500 µg/mL: male, Sprague Dawley, rat, serum
Description: Four month old male Sprague Dawley rats were used as the blood source for the metabolism studies. Blood was collected from left/right jugular veins of the rats using sterile catheters. After a 30 minute incubation on ice, the blood was centrifuged at 1000 rpm for 15 min to separate the serum. Serum was then transferred to clean tubes and stored at −20° C. until use.
Except for dihexa all drug solutions were prepared in HPLC grade water at 5 mg/ml. Stock drugs were kept in powder form and stored at −20° C. Serum metabolism experimental procedure and analysis. Rat blood serum samples were pre-equilibrated at 37° C. and then 10 μL (50 μg) of each drug solution was added to 90 μL of rat serum in 1.5 mL Eppendorf tube maintained at 37° C. At specified time intervals, metabolism was terminated by precipitating proteins with the addition of 1 ml of a solution of acetonitrile (ACN) and acetic acid (9:1, v/v). The terminated reaction mixture was stored in refrigerator (5° C.) overnight and centrifuged (14,000 rpm) for 30 min to remove precipitated proteins. The separated supernatant was dried in vacuum concentrator. The dried samples were reconstituted using 200 μL HPLC mobile phase (10% v/v ACN in water), vortexed briefly, and subjected to HPLC separation and analysis. A serum blank experiment to detect any interfering peaks in the HPLC chromatogram was performed by in an identical manner except that no drug was added. Zero time values for each drug candidate were established by first treating the serum with ACN, processing the sample as described above, adding drug, and then performing HPLC analysis.
The degradation rate of drug was determined by measuring the decrease in area under curve (AUC) at the retention time of drug over time. The AUC obtained from the zero time experiment was considered to represent the “100%” drug concentration and was used to determine the decreased drug concentration at each specified time interval. The semi-logarithmic plot of drug concentration vs. time was generated to determine degradation kinetic constant (k) of the tested drug. The half-life of drug was (t1/2) was calculated by 0.693/k.
Analysis of samples was performed using an HPLC system. The system consisted of a communications bus module, pumps, and a photodiode array detector. Separation was achieved using a C18 (250 mm×4.6 mm id., 5 μm particle size) reverse phase column. The column temperature was set at 40° C. The mobile phase consisted of a mixture of ACN and water with 0.1% TFA and was degassed by ultrasonication. Samples were introduced by manual mode with an injection volume of 250 μL. The drug was eluted with a flow rate of 1 mL/min and detected by PDA detector at […] wavelengths of 215 and 280 nm.

[2] = tested on: hippocampal neurons; experiment: Dendritic spine counts (spinogenesis) in mRFP-β-actin transfected dissociated hippocampal neurons; type: cell-based, rat; details: dose-response; 10^-8 and 10^-10 M
Description: Hippocampal neurons (2×10^5 cells per square cm) were cultured from P1 Sprague Dawley rats on plates coated with poly-L-lysine from Sigma (St. Louis, Mo.; molecular weight 300,000). […] Each experiment was repeated at least three times using independent culture preparations. […] Hippocampal neurons (2×10^5 cells per square centimeter) were cultured from P1-2 Sprague Dawley rats on plates coated with poly-L-lysine from Sigma (St. Louis, Mo.; molecular weight 300,000). Hippocampal neurons were maintained in Neurobasal A media from Invitrogen (Carlsbad, Calif.) supplemented with B27 from Invitrogen, 0.5 mM L-glutamine, and […] cytosine-D-arabinofuranoside from Sigma added at 2 days in vitro. Hippocampal neurons were then cultured a further 3-7 days, at which time they were either transfected or treated with various pharmacological reagents as described in the text or figure legends. Neurons were transfected with mRFP-β-actin on day in vitro 6 […] using LipofectAMINETM 2000 (Invitrogen) according to the manufacturer's protocol. […] On DIV7 the cells were treated with vehicle (H20) or peptides (as described in the text) added to media. […] Five 50 μm long segments of dendrite from at least 10 neurons per data point were analyzed for each data point reported. Each experiment was repeated at least three times using independent culture preparations. […] A target sequence for c-Met was designed using RNAi central design program (see the website located at […].edu/). The target sequence […] NO: 2) was inserted into pSUPER vector (Oligoengine, Seattle Wash.) which drives endogenous production of shRNA under the H1 promoter. The shRNA was transfected into cells using the lipofectamine method described above. Verification of receptor knockdown was done by creating a c-[…]-Myc tagged gene product using the Gateway cloning system (Invitrogen). The Met protein coding sequence was cloned from rat whole brain cDNA using primers obtained from Integrated DNA Technologies, Inc. The amplified product was gel purified and a band corresponding to 190 kDa band excised and cloned into a […] destination vector (Gateway). Hippocampal neurons (2×10^5 cells per square cm) were cultured from P1 Sprague Dawley rats on plates coated with poly-L-lysine from Sigma (St. Louis, Mo.; molecular weight […]).

[3] = tested on: scopolamine treated rats; experiment: Morris water maze, scopolamine amnesia model; type: in vivo, rat; details: for mean latency to find the pedestal: icv, Dihexa, Hinge 300 pmol, scopolamine 70 nmol
Description: Swim speed was determined from these values.

[4] = rat serum, 37° C., Mean +/− SD, N = 3, read-out: Half-Life (min), serum stability

SMILES: CCCC[C@@H](N)C(=O)N[C@@H](Cc1ccc(O)cc1)C(=O)N[C@H](C(=O)O)[C@@H](C)CC [D-Nle-Tyr-Ile] (H-[dNle]-Tyr-Ile-OH)
half-life at 500 µg/mL [1, 4]: 225 min

SMILES: CC[C@H](C)[C@H](NC(=O)[C@H](Cc1ccc(O)cc1)NC(=O)CCCN)C(=O)O [GABA-Tyr-Ile] (H-[GABA]-Tyr-Ile-OH; N-terminus and C-terminus assumed)
spine numbers, stabilized AngIV analogs (FIG. 31) [2]: did not appear to be the most potent generator of new dendritic spines | time spent in the target quadrant, day 9 probe trial ([3]; scopolamine icv 70 nmol, analog icv 1 nmol): different than all the other treated groups | latency to find the submerged platform in the Morris water maze ([3]; scopolamine icv 70 nmol, analog icv 1 nmol, 8 days): exhibited the best performance among the compound treated groups; also recorded: not significantly different than the vehicle control group | time spent in the target quadrant, day 9 probe trial ([3]; scopolamine icv 70 nmol, analog icv 1 nmol, listed as GABA-Tyr): superior to all the other compound treated groups | half-life at 500 µg/mL [1, 4]: 946 min

SMILES: CCCC[C@H](NC(C)=O)C(=O)N[C@@H](Cc1ccc(O)cc1)C(=O)N[C@H](C(=O)N[C@@H](Cc1c[nH]cn1)C(=O)O)[C@@H](C)CC [N-acetyl-Nle-Tyr-Ile-His] (Ac-[Nle]YIH-OH)
half-life at 500 µg/mL [1, 4]: 115 min

SMILES: CCCC[C@H](N)C(=O)N[C@@H](Cc1ccc(O)cc1)C(=O)N[C@H](C(=O)N[C@@H](Cc1cnc[nH]1)C(=O)N1CCC[C@H]1C(=O)N[C@@H](Cc1ccccc1)C(=O)O)[C@@H](C)CC [Nle1-AngIV, Norleucine-YIHPF, reference compound] (H-[Nle]YIHPF-OH)
half-life at 500 µg/mL [1, 4]: 1.42 min | half-life at 500 µg/mL ([1]; read-out: t1/2 in rat serum): 1.4 min | Half-Life (min), serum stability ([1]; rat serum, 37° C., Mean +/− SD, N = 3): less than two minutes

half-life at 500 µg/mL [1, 4]: 23 min
SMILES: CCCC[C@H](N)C(=O)N[C@@H](Cc1ccc(O)cc1)C(=O)N[C@H](C(=O)N[C@@H](Cc1c[nH]cn1)C(N)=O)[C@@H](C)CC [Nle-Tyr-Ile-His-NH2] (H-[Nle]YIH-NH2)

SMILES: CN1[C@@H]2C[C@@H](OC(=O)[C@H](CO)c3ccccc3)C[C@H]1[C@@H]1O[C@@H]12 [scopolamine, Scopolamine hydrobromide, reference compound]
mean latency to find the pedestal ([3]; day one of training): 114.7 s | mean latency to find the pedestal ([3]; final day of training (day 8)): 84.8 s | mean latency to find the pedestal ([3]; fourth day of training): 102.4 s
